From ChEMBL document CHEMBL3046588, “Design, synthesis, and in vitro evaluation of cytotoxic activity of new substituted 1,4-benzoquinones and hydroquinones” (2007)

Legend:
Type in all cases: functional
[1] = Cytotoxicity against Homo sapiens (human) ovarian cancer cells after 48 hr by SRB assay; details: Cancer cell lines
[2] = system: SF-268; test: Cytotoxicity against Homo sapiens (human) SF268 cells assessed as cellular growth after 48 hr by Alamar blue assay; design: concentration or dose not given beside the values
[3] = Cytotoxicity against Homo sapiens (human) colon cancer cells after 48 hr by SRB assay; details: Cancer cell lines
[4] = Cytotoxicity against Homo sapiens (human) non-small cell lung cancer cells after 48 hr by SRB assay; details: Cancer cell lines
[5] = Cytotoxicity against Homo sapiens (human) CNS cancer cells after 48 hr by SRB assay; details: Cancer cell lines
[6] = Cytotoxicity against Homo sapiens (human) melanoma cellsafter 48 hr by SRB assay; details: Melanoma cell
[7] = Cytotoxicity against Homo sapiens (human) leukemia cells after 48 hr by SRB assay; details: Leukemia cell
[8] = Cytotoxicity against Homo sapiens (human) prostate cancer cells after 48 hr by SRB assay; details: Cancer cell lines
[9] = Cytotoxicity against Homo sapiens (human) breast cancer cells after 48 hr by SRB assay; details: Cancer cell lines; for LC50 (concentration giving 50% net cell kill): pooled result: one value given for 9 cell lines, strains, targets or settings
[10] = system: NCI-H460; test: Cytotoxicity against Homo sapiens (human) NCI-H460 cells assessed as cellular growth after 48 hr by Alamar blue assay; design: concentration or dose not given beside the values
[11] = system: MCF7; test: Cytotoxicity against Homo sapiens (human) MCF7 cells assessed as cellular growth after 48 hr by Alamar blue assay; design: concentration or dose not given beside the values
[12] = Cytotoxicity against Homo sapiens (human) renal cancer cells after 48 hr by SRB assay; details: Cancer cell lines
[13] = system: SR; test: Cytotoxicity against Homo sapiens (human) SR cells after 48 hr by SRB assay

Row | SMILES | GI50 [1] | TGI [1] | Activity [2] | GI50 [3] | TGI [3] | GI50 [4] | TGI [4] | GI50 [5] | TGI [5] | GI50 [6] | TGI [6] | GI50 [7] | TGI [7] | GI50 [8] | TGI [8] | GI50 [9] | TGI [9] | LC50 (concentration giving 50% net cell kill) [9] | Activity [10] | Activity [11] | other results
1 | COc1ccc(OC)c(-c2cc(-c3ccc(Cl)cc3)nn2-c2ccc(S(N)(=O)=O)cc2)c1 | 16.9 µM | 50.8 µM | <32% | 0.95 µM | 38.4 µM | 10.9 µM | 44.3 µM | 16.2 µM | 37.2 µM | 12.8 µM | 36.7 µM | 4.44 µM | 52.1 µM | 7.86 µM | 20.8 µM | 11.5 µM | 34 µM | 74.7 µM | <32% | <32% | GI50 [12]: 13.5 µM; TGI [12]: 39.5 µM
2 | NS(=O)(=O)c1ccc(-n2nc(-c3ccc(Cl)cc3)cc2-c2cc(O)ccc2O)cc1 | 14.7 µM | 50.9 µM | <32% | 15.1 µM | 43.1 µM | 13 µM | 39.1 µM | 17.8 µM | 35.5 µM | 14.6 µM | 38.9 µM | 5.03 µM | 61.4 µM | 13.4 µM | 29.8 µM | 16.7 µM | 54.5 µM | 76.6 µM | <32% | <32% | GI50 [12]: 12 µM; TGI [12]: 35.4 µM
3 | Oc1ccc(O)c(-c2cc(-c3ccccc3)nn2-c2ccccc2)c1 | 37.6 µM | 75.2 µM | <32% | 28.5 µM | 77.4 µM | 26.9 µM | 63.6 µM | 18.6 µM | 71.2 µM | 22.6 µM | 63.9 µM | 35.7 µM | 100 µM | 16.7 µM | 100 µM | 17.1 µM | 75.7 µM | 91.3 µM | <32% | <32% | GI50 [12]: 22.6 µM; TGI [12]: 67.3 µM
4 | Cc1nn(-c2ccc(Br)cc2)c(C)c1CC(=O)c1cc(O)ccc1O | 14.1 µM | 42.4 µM | <32% | 11.2 µM | 42.1 µM | 12 µM | 32.9 µM | 11.3 µM | 29.8 µM | 13.1 µM | 31.4 µM | 7.71 µM | 46.6 µM | 12.4 µM | 47.3 µM | 11.4 µM | 36.3 µM | 48.8 µM | <32% | <32% | GI50 [13]: 0.91 µM; GI50 [12]: 12 µM; TGI [12]: 36.7 µM
5 | COc1ccc(OC)c(-c2cc(-c3ccc(Cl)cc3)nn2-c2ccc(S(=O)(=O)NC(C)=O)cc2)c1 | 23.4 µM | 67.1 µM | <32% | 8.18 µM | 36 µM | 17.7 µM | 52.6 µM | 19.4 µM | 50 µM | 10.7 µM | 28.7 µM | 7.45 µM | 50.1 µM | 3.61 µM | 21.9 µM | 25.4 µM | 70.2 µM | 79.2 µM | <32% | <32% | GI50 [12]: 17.7 µM; TGI [12]: 53.2 µM
6 | COc1ccc(OC)c(-c2cc(-c3ccc(Cl)cc3)nn2-c2ccccc2)c1 | 49 µM | 85.2 µM | <32% | 25.2 µM | 82.8 µM | 40.6 µM | 100 µM | 29.2 µM | 84.3 µM | 34.9 µM | 70 µM | 11.1 µM | 78.2 µM | 60.5 µM | 100 µM | 17.7 µM | 78.6 µM | 99.8 µM | <32% | <32% | GI50 [12]: 34.9 µM; TGI [12]: 77.4 µM
7 | CC1=NN(c2ccc(Br)cc2)C(=O)C1CC(=O)c1cc(O)ccc1O (stereo not given) | 34.2 µM | 50 µM | <32% | 36 µM | 45.5 µM | 38.2 µM | 48.6 µM | 25.8 µM | 46 µM | 28 µM | 42.6 µM | 7.75 µM | 35.8 µM | 42.2 µM | 50 µM | 19.1 µM | 38.2 µM | 49.6 µM | <32% | <32% | GI50 [12]: 39.8 µM; TGI [12]: 46.1 µM
